The NIST ThermoML archive (doi:10.1016/j.fluid.2016.08.002)
± gives the expanded uncertainty stated by the source.

Assay: xn = mol fraction of the nth substance listed
Conditions: Gas, Vibrating tube method

S [hydrogen sulfide] + C
Conditions | mass density [kg/m3]
252.89 K, 10727 kPa, x2 = 0.8197 | 209.51 ± 2.2
252.89 K, 11063 kPa, x2 = 0.8197 | 217.25 ± 2.3
252.89 K, 11429 kPa, x2 = 0.8197 | 224.63 ± 2.4
252.9 K, 9948 kPa, x2 = 0.8197 | 181.75 ± 2
252.9 K, 10181 kPa, x2 = 0.8197 | 191.68 ± 2.1
252.9 K, 10440 kPa, x2 = 0.8197 | 200.58 ± 2.2
252.9 K, 11825 kPa, x2 = 0.8197 | 231.88 ± 2.4
252.9 K, 12251 kPa, x2 = 0.8197 | 239.02 ± 2.4
252.91 K, 9089 kPa, x2 = 0.8197 | 146 ± 1.7
252.91 K, 9296 kPa, x2 = 0.8197 | 153.9 ± 1.7
252.91 K, 9508 kPa, x2 = 0.8197 | 162.6 ± 1.8
252.91 K, 9727 kPa, x2 = 0.8197 | 172.12 ± 1.9
252.91 K, 12717 kPa, x2 = 0.8197 | 246.1 ± 2.5
252.92 K, 13223 kPa, x2 = 0.8197 | 253.09 ± 2.5
252.92 K, 13782 kPa, x2 = 0.8197 | 260.02 ± 2.6
252.94 K, 1010 kPa, x2 = 0.714 | 10.45 ± 0.6
252.94 K, 14392 kPa, x2 = 0.8197 | 266.89 ± 2.7
252.95 K, 1513 kPa, x2 = 0.714 | 16.11 ± 0.75
252.95 K, 15070 kPa, x2 = 0.8197 | 273.89 ± 2.8
252.96 K, 508 kPa, x2 = 0.714 | 5.18 ± 0.47
252.97 K, 15829 kPa, x2 = 0.8197 | 280.91 ± 2.9
252.98 K, 16314 kPa, x2 = 0.8197 | 285.18 ± 2.9
252.99 K, 16702 kPa, x2 = 0.8197 | 288.37 ± 2.9
253 K, 2008 kPa, x2 = 0.714 | 22.87 ± 0.87
253 K, 21010 kPa, x2 = 0.8197 | 317.91 ± 2.1
253 K, 21473 kPa, x2 = 0.8197 | 320.52 ± 2
253 K, 21973 kPa, x2 = 0.8197 | 323.2 ± 1.9
253 K, 22531 kPa, x2 = 0.8197 | 326.01 ± 1.9
253 K, 22822 kPa, x2 = 0.8197 | 327.46 ± 1.8
253 K, 23125 kPa, x2 = 0.8197 | 329.05 ± 1.8
253.01 K, 17275 kPa, x2 = 0.8197 | 293.02 ± 2.8
253.01 K, 20084 kPa, x2 = 0.8197 | 312.27 ± 2.2
253.01 K, 20574 kPa, x2 = 0.8197 | 315.19 ± 2.1
253.01 K, 23774 kPa, x2 = 0.8197 | 332.07 ± 1.7
253.01 K, 24145 kPa, x2 = 0.8197 | 333.77 ± 1.7
253.02 K, 2407 kPa, x2 = 0.714 | 28.16 ± 0.97
253.02 K, 17701 kPa, x2 = 0.8197 | 296.11 ± 2.7
253.02 K, 18537 kPa, x2 = 0.8197 | 302.29 ± 2.5
253.02 K, 19009 kPa, x2 = 0.8197 | 305.49 ± 2.4
253.02 K, 19564 kPa, x2 = 0.8197 | 309.06 ± 2.3
253.02 K, 24553 kPa, x2 = 0.8197 | 335.64 ± 1.6
253.02 K, 25031 kPa, x2 = 0.8197 | 337.77 ± 1.6
253.03 K, 225 kPa, x2 = 0.8197 | 2.1 ± 0.37
253.03 K, 18070 kPa, x2 = 0.8197 | 299 ± 2.6
253.03 K, 25582 kPa, x2 = 0.8197 | 340.15 ± 1.6
253.04 K, 26249 kPa, x2 = 0.8197 | 342.94 ± 1.5
253.05 K, 472 kPa, x2 = 0.8197 | 4.43 ± 0.44
253.05 K, 26980 kPa, x2 = 0.714 | 414.51 ± 1.8
253.06 K, 26459 kPa, x2 = 0.714 | 412.74 ± 1.9
253.06 K, 27510 kPa, x2 = 0.8197 | 348.27 ± 1.5
253.07 K, 1105 kPa, x2 = 0.8197 | 10.58 ± 0.62
253.07 K, 23585 kPa, x2 = 0.714 | 402.01 ± 2
253.07 K, 26760 kPa, x2 = 0.8197 | 345.19 ± 1.5
253.07 K, 27152 kPa, x2 = 0.8197 | 346.63 ± 1.5
253.07 K, 27494 kPa, x2 = 0.714 | 416.29 ± 1.8
253.07 K, 28062 kPa, x2 = 0.8197 | 350.41 ± 1.5
253.08 K, 1496 kPa, x2 = 0.8197 | 14.53 ± 0.72
253.08 K, 2006 kPa, x2 = 0.8197 | 20.39 ± 0.86
253.08 K, 28543 kPa, x2 = 0.8197 | 352.25 ± 1.5
253.08 K, 28966 kPa, x2 = 0.8197 | 353.85 ± 1.5
253.08 K, 29496 kPa, x2 = 0.8197 | 355.79 ± 1.5
253.08 K, 30039 kPa, x2 = 0.8197 | 357.73 ± 1.5
253.09 K, 23043 kPa, x2 = 0.714 | 399.91 ± 2.1
253.09 K, 24033 kPa, x2 = 0.714 | 403.73 ± 2
253.09 K, 25963 kPa, x2 = 0.714 | 410.91 ± 1.9
253.1 K, 21049 kPa, x2 = 0.714 | 391.7 ± 2.3
253.1 K, 28034 kPa, x2 = 0.714 | 418.14 ± 1.8
253.11 K, 20550 kPa, x2 = 0.714 | 389.58 ± 2.4
253.11 K, 25528 kPa, x2 = 0.714 | 409.34 ± 1.9
253.12 K, 4809 kPa, x2 = 0.8197 | 59.33 ± 1.2
253.12 K, 19058 kPa, x2 = 0.714 | 382.7 ± 2.7
253.12 K, 24495 kPa, x2 = 0.714 | 405.58 ± 2
253.13 K, 5304 kPa, x2 = 0.8197 | 67.27 ± 1.2
253.13 K, 17511 kPa, x2 = 0.714 | 374.95 ± 3
253.13 K, 28568 kPa, x2 = 0.714 | 420 ± 1.8
253.14 K, 16004 kPa, x2 = 0.714 | 366.38 ± 3.2
253.14 K, 25004 kPa, x2 = 0.714 | 407.49 ± 1.9
253.15 K, 19521 kPa, x2 = 0.714 | 384.91 ± 2.6
253.15 K, 21583 kPa, x2 = 0.714 | 393.97 ± 2.3
253.15 K, 22523 kPa, x2 = 0.714 | 397.9 ± 2.1
253.16 K, 3517 kPa, x2 = 0.8197 | 38.95 ± 1.1
253.16 K, 15038 kPa, x2 = 0.714 | 360.04 ± 3
253.16 K, 18491 kPa, x2 = 0.714 | 380.05 ± 2.8
253.16 K, 20070 kPa, x2 = 0.714 | 387.42 ± 2.5
253.16 K, 29087 kPa, x2 = 0.714 | 421.82 ± 1.8
253.16 K, 29450 kPa, x2 = 0.714 | 423.08 ± 1.8
253.16 K, 30025 kPa, x2 = 0.714 | 425.02 ± 1.8
253.17 K, 14005 kPa, x2 = 0.714 | 352.44 ± 3
253.17 K, 22039 kPa, x2 = 0.714 | 395.89 ± 2.2
253.18 K, 4507 kPa, x2 = 0.8197 | 52.31 ± 1.1
253.18 K, 17054 kPa, x2 = 0.714 | 372.46 ± 3.1
253.19 K, 4054 kPa, x2 = 0.8197 | 46.42 ± 1.1
253.19 K, 18047 kPa, x2 = 0.714 | 377.75 ± 2.9
253.21 K, 2947 kPa, x2 = 0.8197 | 32.5 ± 1
253.21 K, 16513 kPa, x2 = 0.714 | 369.43 ± 3.2
253.22 K, 15498 kPa, x2 = 0.714 | 363.19 ± 3.1
253.23 K, 13535 kPa, x2 = 0.714 | 348.43 ± 2.9
253.25 K, 2607 kPa, x2 = 0.8197 | 28.21 ± 1
253.25 K, 14514 kPa, x2 = 0.714 | 356.43 ± 3
253.27 K, 13000 kPa, x2 = 0.714 | 342.99 ± 2.9
253.28 K, 188 kPa, x2 = 0.8685 | 1.76 ± 0.37
253.29 K, 508 kPa, x2 = 0.8685 | 4.8 ± 0.45
253.29 K, 24245 kPa, x2 = 0.8685 | 303.67 ± 1.5
253.29 K, 24733 kPa, x2 = 0.8685 | 306.89 ± 1.4
253.3 K, 1250 kPa, x2 = 0.8685 | 12.25 ± 0.66
253.3 K, 25670 kPa, x2 = 0.8685 | 310.08 ± 1.4
253.31 K, 1824 kPa, x2 = 0.8685 | 18.07 ± 0.82
253.31 K, 29542 kPa, x2 = 0.8685 | 326.32 ± 1.3
253.32 K, 5258 kPa, x2 = 0.8685 | 55.98 ± 1.2
253.32 K, 6503 kPa, x2 = 0.8685 | 73.25 ± 1.3
253.32 K, 27359 kPa, x2 = 0.8685 | 317.71 ± 1.3
253.32 K, 27986 kPa, x2 = 0.8685 | 320.59 ± 1.3
253.33 K, 2475 kPa, x2 = 0.8685 | 24.75 ± 1
253.33 K, 5174 kPa, x2 = 0.8685 | 53.92 ± 1.2
253.33 K, 5895 kPa, x2 = 0.8685 | 64.88 ± 1.2
253.33 K, 28601 kPa, x2 = 0.8685 | 322.89 ± 1.3
253.33 K, 29015 kPa, x2 = 0.8685 | 324.42 ± 1.3
253.33 K, 30002 kPa, x2 = 0.8685 | 327.17 ± 1.3
253.34 K, 4807 kPa, x2 = 0.8685 | 49.57 ± 1.1
253.34 K, 6994 kPa, x2 = 0.8685 | 80.75 ± 1.3
253.35 K, 3335 kPa, x2 = 0.8685 | 33.57 ± 1.1
253.35 K, 7572 kPa, x2 = 0.8685 | 90 ± 1.5
253.35 K, 7961 kPa, x2 = 0.8685 | 99.59 ± 1.5
253.36 K, 4114 kPa, x2 = 0.8685 | 41.57 ± 1.1
253.36 K, 7255 kPa, x2 = 0.8685 | 84.54 ± 1.5
253.36 K, 8383 kPa, x2 = 0.8685 | 108.5 ± 1.6
253.37 K, 8539 kPa, x2 = 0.8685 | 112.16 ± 1.6
253.38 K, 4487 kPa, x2 = 0.8685 | 45.79 ± 1.1
253.38 K, 8660 kPa, x2 = 0.8685 | 115.11 ± 1.6
253.38 K, 8850 kPa, x2 = 0.8685 | 119.77 ± 1.6
253.39 K, 9030 kPa, x2 = 0.8685 | 124.2 ± 1.6
